Source: ChEMBL document CHEMBL1201862, “PubChem BioAssay data set” (2004)
Active and inactive are the calls of the source.

Key:
[1] = molecular target: T1, Cysteine protease ATG4B (Homo sapiens, UniProt Q9Y4P1); assay type: functional;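 note: Fluorescence-based dose-response confirmation assay measuring inhibition of ATG4B activity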
T1 sequence (Q9Y4P1 whole entry): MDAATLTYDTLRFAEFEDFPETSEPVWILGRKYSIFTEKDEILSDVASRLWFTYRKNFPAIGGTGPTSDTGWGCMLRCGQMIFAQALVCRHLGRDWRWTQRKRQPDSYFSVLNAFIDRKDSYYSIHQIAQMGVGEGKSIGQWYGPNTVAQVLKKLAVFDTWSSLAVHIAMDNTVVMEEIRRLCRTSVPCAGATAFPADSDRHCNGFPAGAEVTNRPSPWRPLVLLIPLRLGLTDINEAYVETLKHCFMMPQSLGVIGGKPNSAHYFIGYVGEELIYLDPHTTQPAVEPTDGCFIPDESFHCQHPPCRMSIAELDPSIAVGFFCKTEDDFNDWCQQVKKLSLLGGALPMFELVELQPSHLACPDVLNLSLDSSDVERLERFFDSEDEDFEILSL

[2] = molecular target: Phospholipase A2 (Homo sapiens, UniProt P04054); assay type: functional;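 note: confirmatory dose-response counterscreen on phospholipase A2, testing hits that came from an ultra-high-throughput screen for ATG4B inhibitors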
Sequence of Phospholipase A2 (P04054 whole entry): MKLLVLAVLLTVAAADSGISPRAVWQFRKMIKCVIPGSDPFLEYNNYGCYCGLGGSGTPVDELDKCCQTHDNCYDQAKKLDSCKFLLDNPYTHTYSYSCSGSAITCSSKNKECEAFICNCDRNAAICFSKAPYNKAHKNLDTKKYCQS

[3] = test system: HeLa; experiment: HeLa cell cytotoxicity, dose response, cytotoxicity control for MITF activator project, CellTiter-Glo luminescence, cherry-pick samples (AID 540259); assay type: functional, cell-based; details: Homo sapiens
[4] = test system: Vero; experiment: cells; assay type: functional; details: Chlorocebus sabaeus
[5] = HEp-2 cell cytotoxicity, dose response, cytotoxicity control for RSV inhibitor project, HTS (AID 2410); assay type: functional; details: human respiratory syncytial virus
[6] = cells
[7] = test system: Vero; experiment: cells; assay type: functional, cell-based; details: Chlorocebus sabaeus
[8] = molecular target: T2, Short transient receptor potential channel 4 (Mus musculus, UniProt Q9QUQ5); experiment: mouse TRPC4 channel inhibitors, dose response, cell-based, HEK293 TRPC4/mu-opioid, Fluo-4 calcium (AID 434942); assay type: functional;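 note: potency of inhibitors blocking the TRPC4 calcium response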
T2 sequence (Q9QUQ5 whole entry): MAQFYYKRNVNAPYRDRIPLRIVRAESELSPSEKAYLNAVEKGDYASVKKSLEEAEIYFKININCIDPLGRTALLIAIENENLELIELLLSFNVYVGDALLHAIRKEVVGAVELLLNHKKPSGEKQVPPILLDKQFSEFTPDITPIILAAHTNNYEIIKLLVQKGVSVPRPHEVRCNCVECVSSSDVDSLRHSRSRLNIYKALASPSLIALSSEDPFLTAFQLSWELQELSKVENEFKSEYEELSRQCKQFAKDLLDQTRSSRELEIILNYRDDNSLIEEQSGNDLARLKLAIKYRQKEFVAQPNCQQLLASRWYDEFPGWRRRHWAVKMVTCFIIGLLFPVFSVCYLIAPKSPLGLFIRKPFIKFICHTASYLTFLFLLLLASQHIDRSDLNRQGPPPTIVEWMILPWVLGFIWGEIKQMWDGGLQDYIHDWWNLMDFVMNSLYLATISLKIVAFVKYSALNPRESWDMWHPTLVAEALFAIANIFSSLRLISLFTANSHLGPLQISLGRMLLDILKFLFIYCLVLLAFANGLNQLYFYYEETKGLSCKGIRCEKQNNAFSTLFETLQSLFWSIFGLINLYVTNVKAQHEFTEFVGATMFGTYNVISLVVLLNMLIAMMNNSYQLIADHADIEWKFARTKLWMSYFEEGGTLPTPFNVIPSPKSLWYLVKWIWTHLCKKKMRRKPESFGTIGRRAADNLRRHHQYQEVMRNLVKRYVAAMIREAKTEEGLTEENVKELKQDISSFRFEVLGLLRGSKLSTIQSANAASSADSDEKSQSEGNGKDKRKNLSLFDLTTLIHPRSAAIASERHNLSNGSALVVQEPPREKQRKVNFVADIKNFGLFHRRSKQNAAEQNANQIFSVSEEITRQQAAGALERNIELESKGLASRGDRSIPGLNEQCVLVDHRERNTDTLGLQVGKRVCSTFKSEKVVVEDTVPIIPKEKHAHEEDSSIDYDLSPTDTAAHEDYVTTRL

[9] = molecular target: T2, Short transient receptor potential channel 4; experiment: mouse TRPC4 channel activators, dose response, cell-based, HEK293 TRPC4/mu-opioid, Fluo-4 calcium (AID 434937); assay type: functional
[10] = molecular target: T3, Nuclear receptor subfamily 0 group B member 1 (Homo sapiens, UniProt P51843); experiment: Luminescence-based cell-based high throughput dose response assay for inhibitors of the orphan nuclear receptor subfamily 0, group B, member 1 (DAX1; NR0B1). [Related pubchem assays (depositor defined):AID504766, AID504790]; assay type: functional
T3 sequence (P51843 whole entry): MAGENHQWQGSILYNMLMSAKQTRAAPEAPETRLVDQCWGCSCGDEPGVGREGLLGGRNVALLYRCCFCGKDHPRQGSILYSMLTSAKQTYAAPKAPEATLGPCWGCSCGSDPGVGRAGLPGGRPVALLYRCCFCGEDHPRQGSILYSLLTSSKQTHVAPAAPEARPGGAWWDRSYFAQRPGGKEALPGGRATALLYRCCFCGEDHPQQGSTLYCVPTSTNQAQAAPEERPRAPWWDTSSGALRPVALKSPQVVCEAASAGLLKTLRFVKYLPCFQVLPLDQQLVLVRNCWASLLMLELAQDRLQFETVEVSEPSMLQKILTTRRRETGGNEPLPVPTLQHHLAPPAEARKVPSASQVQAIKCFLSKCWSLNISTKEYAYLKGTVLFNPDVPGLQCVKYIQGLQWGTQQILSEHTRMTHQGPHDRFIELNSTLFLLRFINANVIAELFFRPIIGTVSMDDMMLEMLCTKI

[11] = test system: H4; experiment: Luminescence Cell-Based Dose Response HTS to Identify Activators of 5'UTR Stem-Loop Driven Prion Protein mRNA Translation in H4 Neuroglioblastoma Cells. [Related pubchem assays: 1829 (Project Summary), 1814 (Primary HTS)]; assay type: functional; details: Homo sapiens
[12] = Luminescence Cell-Based Dose Response HTS to Identify Activators of Luciferase Translation or Activity in H4 […] Cells. [Related pubchem assays: 1829 (Project Summary), 1814 (Primary HTS)]; assay type: functional
[13] = Luminescence Cell-Based Dose Response to Identify Activators of 5'UTR Stem-Loop Driven Prion Protein mRNA Translation in H4-C Neuroglioblastoma Cells. [Related pubchem assays: 1829 (Project Summary), 1814 (Primary HTS)]; assay type: functional
[14] = test system: HEK293; experiment: cells; assay type: functional, cell-based; details: Homo sapiens
[15] = Luminescence Cell-Based Dose Confirmation to Identify Activators of 5'UTR Stem-Loop Driven Alpha-Synuclein mRNA Translation in H4 Neuroglioblastoma Cells. [Related pubchem assays: 1829 (Project Summary), 1814 (Primary HTS)]; assay type: functional
[16] = Luminescence Cell-Based Dose Response to Identify Activators of Luciferase Translation or Activity in H4-C Neuroglioblastoma Cells. [Related pubchem assays: 1829 (Project Summary), 1814 (Primary HTS)]; assay type: functional

COc1ccccc1CNC(=O)c1ccccc1OCc1ccc(F)cc1
IC50 [1]: 43.6 µM (inactive)
IC50 [2]: 49.5 µM (inactive)

COc1ccccc1OCc1cc(-c2ccccc2)no1
AC50 [3]: 48 µM (active)

COc1cccc(NC(=O)[C@H](Cc2c[nH]c3ccccc23)NC(=O)[C@@H]2Cc3ccccc3CN2)c1
CC50 [4]: > 25 µM (active)
CC50 [5]: 17.1 µM (active)
IC50 [6]: 7.96 µM (active)
IC50 [7]: 9.61 µM (active)

CN(C)C(CNC(=O)c1cc2ccccc2oc1=O)c1ccccc1 (configuration not stated)
AC50 [3]: 240 µM (active)
EC50 [8]: 0.149 µM (active)
EC50 [9]: 0.299 µM (active)

CC(C)c1cc(C(=O)NCCc2ccccc2)no1
IC50 [10]: > 67.5 µM (inactive)
EC50 [11]: 7.28 µM (active)
EC50 [12]: < 0.1 µM (inconclusive)
EC50 [13]: 1.54 µM (active)
IC50 [14]: > 67.5 µM (inactive)
EC50 [15]: 1.06 µM (active)
EC50 [16]: 0.375 µM (active)
